Values joined by “and” are separate entries in the source; they are usually repeats but may differ in a detail not shown here. Identical values can stand only once.
Columns and labels:
[1] = molecular target: T1, AChE (from human erythrocytes) (Homo sapiens, UniProt P22303); assay: biochemical; assay type: biochemical; settings: mean ± SEM of three experiments; for AChE IR (inhibition ratio): at 10 μM
T1 construct: AChE (from human erythrocytes, C0663); purchased Sigma-Aldrich C0663; host or cells: human erythrocytes
T1 sequence (P22303 other isoform, or with tags, fused parts or gaps): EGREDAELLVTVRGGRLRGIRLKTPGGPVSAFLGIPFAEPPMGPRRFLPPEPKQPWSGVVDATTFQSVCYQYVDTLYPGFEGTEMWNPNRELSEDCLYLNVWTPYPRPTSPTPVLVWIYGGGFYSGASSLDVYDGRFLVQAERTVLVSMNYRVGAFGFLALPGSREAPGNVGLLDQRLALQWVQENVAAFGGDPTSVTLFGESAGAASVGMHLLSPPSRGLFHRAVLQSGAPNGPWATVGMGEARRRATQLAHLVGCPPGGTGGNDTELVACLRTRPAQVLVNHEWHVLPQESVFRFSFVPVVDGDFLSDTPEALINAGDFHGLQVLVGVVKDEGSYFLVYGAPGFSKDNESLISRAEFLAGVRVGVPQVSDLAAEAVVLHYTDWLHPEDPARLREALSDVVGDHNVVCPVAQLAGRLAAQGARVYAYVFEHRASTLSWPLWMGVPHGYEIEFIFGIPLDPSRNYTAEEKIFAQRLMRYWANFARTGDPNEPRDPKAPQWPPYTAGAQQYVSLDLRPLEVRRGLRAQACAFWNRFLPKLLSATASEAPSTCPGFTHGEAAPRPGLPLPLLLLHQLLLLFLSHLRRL
Description: (§1) Modified Ellman’s assay was performed to measure the inhibitory effects of purchased compounds on ChEs using a Thermo Fisher Scientific spectrophotometer. AChE (from human erythrocytes, C0663), BChE (from human serum, B4186), 5,5-dithiobis-(2-nitrobenzoic acid) (DTNB, D218200), acetylthiocholine iodide (ATC, A5751), and butyrylthiocholine iodide (BTC, B3253) were purchased from Sigma-Aldrich (St. Louis, MO, USA).
(§2) For measurement, a cuvette containing 30 μL of phosphate buffer, 10 μL of AChE (2.5 units/mL) or BChE (2.5 units/mL), and 10 μL of the test compound solution was allowed to stand for 5 min before 10 μL of DTNB was added. After the addition of 20 μL of ATC or BTC, the reaction was initiated and the solution was mixed immediately. […] 10 μL of phosphate-buffered solution replaced the enzyme solution were used to determine the blank value. All the measurements were done in triplicate. The inhibition curve was drawn by plotting the percentage enzyme activity (100% for the reference) versus the logarithm of the test compound concentration. The IC50 values were calculated by GraphPad Prism 6 (GraphPad Software, San Diego, CA, USA), and the data were shown as mean ± standard error of mean (SEM).

BChE (from human serum) = molecular target: T2, BChE (from human serum) (Homo sapiens, UniProt P06276); assay: biochemical; assay type: biochemical; settings: for BChE IR (inhibition ratio): at 10 μM; for BChE IR (inhibition ratio) / IC50: mean ± SEM of three experiments
T2 construct: BChE (from human serum, B4186); purchased Sigma-Aldrich B4186; host or cells: human serum
T2 sequence (P06276 29-602): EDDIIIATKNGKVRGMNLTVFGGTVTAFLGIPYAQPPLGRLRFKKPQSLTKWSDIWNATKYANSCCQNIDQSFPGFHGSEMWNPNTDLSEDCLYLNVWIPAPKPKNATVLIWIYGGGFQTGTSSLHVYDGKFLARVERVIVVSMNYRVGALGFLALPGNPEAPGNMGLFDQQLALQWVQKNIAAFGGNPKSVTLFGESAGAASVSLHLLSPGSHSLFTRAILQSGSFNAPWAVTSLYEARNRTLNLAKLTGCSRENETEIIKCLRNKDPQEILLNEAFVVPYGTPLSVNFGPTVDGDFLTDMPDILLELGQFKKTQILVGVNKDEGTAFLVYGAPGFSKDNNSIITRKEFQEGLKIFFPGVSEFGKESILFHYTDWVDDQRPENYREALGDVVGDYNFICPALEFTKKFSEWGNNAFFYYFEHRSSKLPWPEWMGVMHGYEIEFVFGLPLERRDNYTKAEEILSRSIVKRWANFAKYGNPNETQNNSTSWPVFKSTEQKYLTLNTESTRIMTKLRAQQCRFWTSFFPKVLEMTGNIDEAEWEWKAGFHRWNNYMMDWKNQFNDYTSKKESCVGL
Description: as §1, §2

hAChE = tested on: hAChE; design: method as in earlier work; settings: Figure 1; ref 22 (1), 23 (2); cited from earlier work
hBChE = settings: read-out: IC50 (hBChE); Figure 1; ref 22 (1), 23 (2), 24 (3), 25 (4); cited from earlier work
BChE = molecular target: T3, BChE (Homo sapiens, UniProt P06276); assay: Enzyme kinetic study with BChE (substrate BTC); assay type: biochemical; settings: for Apparent Vmax: mean ± SD; for Kiu (inhibition constant for the uncompetitive part of inhibition) / Ki: mean ± SEM of three experiments; for Ki: read-out: Kic (inhibition constant for the competitive part of inhibition); for Mode of inhibition: substrate 90–904 μM, inhibitor 0.5–2 μM
T3 construct: BChE (from human serum, B4186); purchased Sigma-Aldrich B4186; host or cells: human serum
T3 sequence (P06276 29-602): as above
Description: Kinetic studies were performed in the same manner as the determination of ChE inhibition as previously described. The substrate (BTC) was used at various concentrations (90, 150, 226, 452, and 904 μM) for each test compound concentration and the enzymatic reaction was extended to four minutes before determining the absorption. The Vmax and Km values of the Michaelis–Menten kinetics were calculated by nonlinear regression from substrate–velocity curves using Graphpad Prism 6 (GraphPad Software, San Diego, CA, USA) (Table S1). […]

SH-SY5Y cells = assay: MTT cell viability assay; assay type: cell-based; settings: 10 μM and 50 μM, 24 h
Description: The human neuroblastoma SH-SY5Y cells (3 × 10^3, DMEM medium supplemented with 10% fetal bovine serum, volume 0.1 mL) were placed in a 96-well flat-bottomed plate, in a humidified atmosphere of 95% air and 5% CO2 at 37 °C and grown to 80% confluence. Before cell treatment, the complete medium was replaced with reduced-serum medium (BI, 01-052-1ACS). Then, cells were treated with various concentrations of compounds for 24 h. MTT reagent (D&B, Q108115) (0.5 mg/mL) was added to the wells and the plates were incubated for 4 h at 37 °C. Supernatants were carefully removed, and 150 μL of dimethylsulfoxide (DMSO) were added into each well. The absorbance was measured at 570 nm using the spectrophotometer (Thermo, multiskan FC, USA). Cells were treated in quadruplicate. The values are the mean ± SD of three independent experiments.

What does the source list for COc1cccc(S(=O)(=O)NCC2CCCN(Cc3cc4ccccc4o3)C2)c1 (centres unmarked) [Compound 16]?
AChE IR (inhibition ratio) [1]: 38.7 ± 1.7%; BChE IR (inhibition ratio) (BChE (from human serum)): 26.4 ± 1.1%

Which IC50 [1] does the source give for COC(=O)c1c(S(=O)(=O)Nc2ccc(C)cc2)sc2c1CCN(Cc1ccccc1O)C2 [Compound 19] here?
The IC50 was 13.8 ± 6 µM.

And the “BChE selective index (SI BChE, AChE IC50/BChE IC50)” value (BChE (from human serum))?
Its value is 6.

What about the IC50 (BChE (from human serum)) of the same molecule?
The IC50 was 2400 ± 1000 nM.

With CN(C)CCN(CC1CCCN(C2Cc3ccccc3C2)C1)C(=O)c1ccc2ccccc2c1 (centres unmarked) [Compound 2] as the molecule, how does the IC50 (hAChE) read?
The IC50 was greater than 10 µM.

Which “AChE IR (inhibition ratio)” value [1] does the source give for O=C(CC1NC(N2CCN(Cc3ccccc3)CC2)=NC1=O)Nc1ccccc1 (centres unmarked) [Compound 10] here?
Its value is 7.8 ± 0.7%.

And the “BChE IR (inhibition ratio)” value (BChE (from human serum))?
Its value is 9.9 ± 1.0%.

What does the source list for CCN(Cc1ccccc1)C(=O)CCc1nc2ccsc2c(=O)n1Cc1ccccc1 [Compound 14]?
AChE IR (inhibition ratio) [1]: 10.9 ± 0.8%; BChE IR (inhibition ratio) (BChE (from human serum)): 3.4 ± 0.4%

For COCCN(CC1CCCN(Cc2ccccc2)C1)S(=O)(=O)c1ccc2ccccc2c1 (centres unmarked) [Compound 1, N-((1-benzylpiperidin-3-yl)methyl)-N-(2-methoxyethyl)naphthalene-2-sulfonamide], which IC50 (hAChE) is on record?
The IC50 was greater than 10 µM.

With CCCCCCCNC(=O)Oc1ccc2c(c1)CN(C)C(c1cccs1)N2C (centres unmarked) [Compound 4] as the molecule, how does the IC50 (hBChE) read?
The IC50 was 13 nM.

What does the source list for CC1=NC2C(SC(=S)N2Cc2ccco2)C(=O)N1CC(=O)NCCc1ccccc1 (centres unmarked) [Compound 12]?
AChE IR (inhibition ratio) [1]: 1.1 ± 1.0%; BChE IR (inhibition ratio) (BChE (from human serum)): −1.8 ± 1.1%

Which results are given for COc1ccc(CCN2CCCC(O)(CNCc3cc(C)ccc3C)C2=O)cc1 (centres unmarked) [Compound 18]?
AChE IR (inhibition ratio) [1]: 11.1% and 11.1 ± 1.5%; BChE selective index (SI BChE, AChE IC50/BChE IC50) (BChE (from human serum)): > 30; BChE IR (inhibition ratio) (BChE (from human serum)): 58.4% and 58.4 ± 0.9%; IC50 (BChE (from human serum)): 6300 ± 2000 nM; Apparent Vmax (BChE; inhibitor 0.5 µM): 0.49 ± 0.01 µM/min; Apparent Vmax (BChE; inhibitor 1 µM): 0.42 ± 0.02 µM/min; Apparent Vmax (BChE; inhibitor 1.5 µM): 0.39 ± 0.01 µM/min; Apparent Vmax (BChE; inhibitor 2 µM): 0.28 ± 0.02 µM/min; Kiu (inhibition constant for the uncompetitive part of inhibition) (BChE): 2.31 ± 0.32 µM; Ki (BChE): 930 ± 130 nM; Mode of inhibition (BChE): mixed-type inhibitors; Effect on cell viability (cytotoxicity) (SH-SY5Y cells): none of compounds was observed to affect cell viability

What does the source list for O=C(NC1(C(F)(F)F)N=C(c2ccccc2)N(Cc2ccccc2)C1=O)c1ccco1 (centres unmarked) [Compound 11]?
AChE IR (inhibition ratio) [1]: −0.7 ± 0.7%; BChE IR (inhibition ratio) (BChE (from human serum)): 14.8 ± 1.3%

With Cc1ccc(S(=O)(=O)Nc2nc3ccccc3nc2NCc2ccc(F)cc2)cc1C [Compound 5] as the molecule, how does the “AChE IR (inhibition ratio)” value [1] read?
The value was −0.31 ± 0.5%.

And the “BChE IR (inhibition ratio)” value (BChE (from human serum))?
Its value is 7.2 ± 0.6%.

For Cc1nc(-c2cccc(F)c2)n(CCC(=O)NCCCc2ccccc2)c(=O)c1CCO [Compound 6], which “AChE IR (inhibition ratio)” value [1] is on record?
Its value is −1.5 ± 0.5%.

And the “BChE IR (inhibition ratio)” value (BChE (from human serum))?
The value was 8.5 ± 0.3%.

Which “AChE IR (inhibition ratio)” value [1] does the source give for Cc1cc(C)cc(N(CC(=O)N2CCN(Cc3ccccc3)CC2)S(=O)(=O)c2ccccc2)c1 [Compound 17] here?
The value was 2.9 ± 0.5%.

What about the “BChE IR (inhibition ratio)” value (BChE (from human serum)) of the same molecule?
Its value is 11.8 ± 1.2%.

Which results are given for COc1cccc(N(CC(=O)N2CCN(Cc3ccccc3)CC2)S(=O)(=O)c2ccccc2)c1 [Compound 13]?
AChE IR (inhibition ratio) [1]: 11.3 ± 1.3%; BChE IR (inhibition ratio) (BChE (from human serum)): 20.1 ± 1.2%

With Cc1noc(C)c1CN(C)Cc1ccn(S(=O)(=O)c2ccccc2)c1 [Compound 7] as the molecule, how does the “AChE IR (inhibition ratio)” value [1] read?
The value was 0.6 ± 0.6%.

What about the “BChE IR (inhibition ratio)” value (BChE (from human serum)) of the same molecule?
Its value is 16.3 ± 1.1%.

Which “AChE IR (inhibition ratio)” value [1] does the source give for O=C(O)C(c1c[nH]c2ccccc12)N1CCN(c2ccccn2)CC1 (centres unmarked) [Compound 15] here?
The value was 0.6 ± 1.0%.

And the “BChE IR (inhibition ratio)” value (BChE (from human serum))?
The value was −0.6 ± 0.5%.

With O=C1NCCCc2c1c1ccccc1n2CCc1cccc(F)c1 [Compound 3] as the molecule, how does the IC50 (hBChE) read?
The IC50 was 1.8 nM.

Which results are given for COc1ccccc1CN1CCCC(CN(CCN(C)C)C(=O)C(=O)c2ccccc2)C1 (centres unmarked) [Compound 8]?
BChE selective index (SI BChE, AChE IC50/BChE IC50) (BChE (from human serum)): > 30; IC50 (BChE (from human serum)): 1100 ± 600 nM; Apparent Vmax (BChE; inhibitor 0.5 µM): 0.34 ± 0.01 µM/min; Apparent Vmax (BChE; inhibitor 1 µM): 0.27 ± 0.01 µM/min; Apparent Vmax (BChE; inhibitor 1.5 µM): 0.25 ± 0.01 µM/min; Apparent Vmax (BChE; inhibitor 2 µM): 0.24 ± 0.01 µM/min; Kiu (inhibition constant for the uncompetitive part of inhibition) (BChE): 3.61 ± 0.24 µM; Ki (BChE): 880 ± 70 nM; Mode of inhibition (BChE): mixed-type inhibitors; Effect on cell viability (cytotoxicity) (SH-SY5Y cells): none of compounds was observed to affect cell viability

What does the source list for COCCN1C(=O)N(CCc2ccccc2)C(=O)C12CCN(Cc1ccccc1)CC2 [Compound 9]?
AChE IR (inhibition ratio) [1]: 16.0 ± 1.5%; BChE IR (inhibition ratio) (BChE (from human serum)): 15.5 ± 1.6%

— publication PMC6930573, “Discovery of Selective Butyrylcholinesterase (BChE) Inhibitors through a Combination of Computational Studies and Biological Evaluations” (Molecules, 2019)
